In PubChem BioAssay (NCI):
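These data come from cells grown in 96-well plates and exposed to compound for 48 hours at five concentrations. Definition used: TGI = concentration required for complete inhibition of growth.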

Experiments:
Assay in all cases: NCI tumour cell line growth inhibition, 48 h
[1] = test system: LXFL 529 NSCLC
[2] = test system: XF 498 CNS
[3] = test system: DLD-1 colon
[4] = test system: SNB-78 CNS
[5] = test system: KM20L2 colon
[6] = test system: DMS 273 small cell lung
[7] = test system: DMS 114 small cell lung
[8] = test system: 786-0 renal
[9] = test system: P388/ADR leukemia
[10] = test system: SN12K1 renal
[11] = test system: P388 leukemia
[12] = test system: M19-MEL melanoma

COc1ccc(-c2cc3[nH]nc(N)c3c(=O)o2)cc1 was tested, and the TGI [1] was greater than 100 µM, the TGI [2] was greater than 100 µM and the TGI [3] was greater than 100 µM. It also gave a TGI [4] greater than 100 µM, a TGI [5] greater than 100 µM and a TGI [6] greater than 100 µM. The TGI [7] was greater than 100 µM.
For O=C1C(Cl)=C(Nc2ccc(S(=O)(=O)Nc3ccccn3)cc2)C(=O)c2ccccc21, the TGI [8] was 26.1 µM.
N/C(=N\N=C\c1ccc2c(c1)OCCO2)NO was tested, and the TGI [9] was 40.5 µM, the TGI [10] was greater than 57.7 µM and the TGI [2] was greater than 30.6 µM. The TGI [3] was greater than 100 µM, the TGI [4] was greater than 100 µM and the TGI [11] was 47.3 µM. The TGI [12] was 98.6 µM, the TGI [5] was greater than 52 µM and the TGI [6] was 57.6 µM. The TGI [7] was greater than 77.6 µM.
